These results are taken from ChEMBL document CHEMBL1177743, “Symbiopolyol, a VCAM-1 inhibitor from a symbiotic dinoflagellate of the jellyfish Mastigias papua” (J Nat Prod, 2010).

Molecules are shown by their SMILES.

The test system of data set [1] is HUVEC. Briefly: Toxicity in HUVEC up to 12 uM. It counts as cell-based. To be noted: human.
Data set [2] has as its system HUVEC. Briefly: Inhibition of VCAM1 expression in TNF-alpha-stimulated HUVEC pretreated 30 mins before TNFalpha challenge for 18 hrs by ELISA. The data set is classed as functional, cell-based. To be noted: Homo sapiens. A general note: An ELISA detects its analyte on a solid surface through an enzyme-linked reagent.
Data set [3] has as its target T1, Vascular cell adhesion protein 1 (Homo sapiens) (UniProt P19320).
T1 sequence (whole entry): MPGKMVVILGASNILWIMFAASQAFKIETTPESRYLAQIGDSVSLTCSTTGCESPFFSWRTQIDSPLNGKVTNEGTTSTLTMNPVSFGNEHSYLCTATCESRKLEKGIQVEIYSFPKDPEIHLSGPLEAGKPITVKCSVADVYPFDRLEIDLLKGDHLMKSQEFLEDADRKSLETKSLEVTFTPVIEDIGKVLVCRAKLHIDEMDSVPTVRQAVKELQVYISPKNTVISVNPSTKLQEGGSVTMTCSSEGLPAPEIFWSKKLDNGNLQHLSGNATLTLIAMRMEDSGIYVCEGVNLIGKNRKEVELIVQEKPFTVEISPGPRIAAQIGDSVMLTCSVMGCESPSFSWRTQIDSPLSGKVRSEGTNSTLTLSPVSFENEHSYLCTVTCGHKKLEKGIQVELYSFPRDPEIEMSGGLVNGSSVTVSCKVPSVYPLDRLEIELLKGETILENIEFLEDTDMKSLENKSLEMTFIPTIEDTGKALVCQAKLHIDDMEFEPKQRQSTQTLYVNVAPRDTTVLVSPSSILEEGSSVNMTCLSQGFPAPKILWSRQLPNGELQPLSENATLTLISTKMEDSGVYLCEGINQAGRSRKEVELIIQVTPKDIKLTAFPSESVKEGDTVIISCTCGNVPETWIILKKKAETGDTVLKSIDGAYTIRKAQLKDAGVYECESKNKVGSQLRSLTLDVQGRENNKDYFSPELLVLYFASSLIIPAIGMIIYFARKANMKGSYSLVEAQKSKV
Description: Inhibition of VCAM1 in TNF-alpha/IL4-stimulated HUVEC assessed as inhibition of cell adhesion between HUVEC and Ramos cells at 8 uM after 20 hrs incubation relative to untreated control. The data set is classed as cell-based.

For the compound `C=CCC/C=C/C=C/C=C/CC/C=C/[C@@H](O)[C@H](O)[C@@H]1O[C@@H]([C@H](O)[C@@H](O)C(=C)CC[C@@H](O)[C@H]2C[C@@H](O)[C@@H](O)[C@H]([C@@H](O)[C@H](O)/C=C(\C)CC[C@H](O)C[C@H](O)[C@H](O)C(C)C(O)C(O)C/C=C/CC(O)/C=C/CCCCCOS(=O)(=O)[O-])O2)C[C@@H](O)[C@H]1O.[Na+]` (stereo partly drawn) [SYMBIOPOLYOL], the Activity entry in the data set on HUVEC [1] is “Non-toxic”. Moreover, the IC50 – broadly, the point on the concentration scale where inhibition reaches its midpoint – in the data set on HUVEC [2] turned out to be 6.62 µM. The inhibition (as a rule, how much of the control response was suppressed) in data set [3] stood at 77%.
